Assay results published in US6340741B1, “Potent genetic switch allowing regulated gene expression in eukaryotic cells” (University of Lausanne, priority 1998, dated 2002).

Tested on: p5xGTTI-Luc+ luciferase reporter in BHK 21 cells
Experiment: Repression of luciferase reporter activated by constitutive GAL4-VP16, transient transfection of BHK 21 cells (Example 2)
Assay type: cell-based, hamster
Settings: 100 ng/ml dox
Description: Baby hamster kidney 21 (BHK 21) cells were cultivated in DMEM (Gibco-BRL) supplemented with 10% FCS (Gibco-BRL). For transfectiors, cells were seeded in 24 well plates at about 40% confluency and allowed to attach to the surface. After washing with PBS, cells were exposed to the transfection mix for 4 hours. Thereafter, the transfection mix was replaced by medium which contained, where indicated, 100 ng/ml doxycycline hydrochloride (Sigma #D9891). Generally, medium was replaced every 24 hours and cells were harvested 48 hours post-transfection.
For luciferase and β-galactosidase measurements, cell extracts were prepared as follows. […] After a delay of 2 sec light emission was measured for 2 sec.
Colorimetric determination of β-galactosidase activity was performed by adding 150 μl CPRG buffer (60 mM Na2HPO4 7 H2O, 40 mM NaH2PO4, 10 mM KCl, 1 mM MgSO4, 50 mM β-mercaptoethanol) and 20 μl CPRG solution (Boehringer Mannheim #884308, 4 mg/ml in H2O) to the remaining 30 μl cell extract in the 96 well plate. […] Absorbance was measured at 575 nm in a plate reader (Spectramax 340, Molecular Devices) and samples were normalized to wells in which lysis buffer was assayed.
Relative light units were calculated by normalizing luciferase for β-galactosidase activity. […]

C[C@H]1c2cccc(O)c2C(=O)C2=C(O)[C@]3(O)C(=O)C(C(N)=O)=C(O)[C@@H](N(C)C)[C@@H]3[C@@H](O)[C@@H]21.Cl [dox, doxycycline hydrochloride]
effect of addition of the dox ligand on repression: abolished the repression
